# According to US9977309B2, “Electrophoretic fluid” (Merck Patent GmbH, priority 2013, dated 2018):
# Assay: Saturation solubility of dyes in decane
# Type: physicochemical
row,Saturation wt % in decane [wt %],SMILES
1,3.72,CCCCCCCCCCCCCCc1ccc(/N=N/c2c(C)cc(=O)n(CC(CC)CCCC)c2O)cc1 (stereo not drawn) [Dye 6]
2,0.003,CCCCCCCCCCCCCCCCCCN(CCCCCCCCCCCCCCCCCC)c1cc(NC(C)=O)c(/N=N/c2c(C#N)cc([N+](=O)[O-])cc2C#N)cc1OC [Dye 1]
3,10.50,CCCCCCCCN(CCCCCCCC)c1ccc(/N=N/c2ccc([N+](=O)[O-])cc2)c(C)c1 [Dye 8]
4,9.95,CCCCc1ccc(/N=N/c2ccc(N(CCCC)CCCC)cc2)cc1 [Dye 7]
5,1.03,CCCCCCCCCCCCCCc1ccc(/N=N/c2c(C)c(C#N)c(=O)n(CC(CC)CCCC)c2O)cc1 (stereo not drawn) [Dye 5]
6,0.19,CCCCCCCCN(CCCCCCCC)c1ccc(/N=N/c2snc(C)c2C#N)c(NC(C)=O)c1 [Dye 4]
